Where a SMILES comes first, the peptide text is derived from it. The star is where a group is joined. Cbz = O=C(OCc1ccccc1)*; CH2F = FC*
Experiments:
procaspase 8, BID, PARP = assay: Western blot of procaspase 8, BID and PARP in MCF-7 cells; type: cell-based
Procedure: (§1) Western Blotting. Western blots were performed as previously described (6). The Fas/CD95, Bc1-2 and BID (Santa Cruz Biotechnology, Santa Cruz, Calif.), caspase 8 (Oncogene Research Products, Darmstadt, Germany), p53 (Santa Cruz Biotechnology), and PARP (Pharmingen, BD Biosciences, Oxford, England) mouse monoclonal antibodies were used in conjunction with a horseradish peroxidase (HRP)-conjugated sheep anti-mouse secondary antibody (Amersham, Little Chalfont, Buckinghamshire, England). FasL rabbit polyclonal antibody (Santa Cruz Biotechnology) was used in conjunction with an HRP-conjugated donkey anti-rabbit secondary antibody (Amersham). TS sheep monoclonal primary antibody (Rockland, Gilbertsville, Pa.) was used in conjunction with an HRP-conjugated donkey anti-sheep secondary antibody (Serotech, Oxford, England). Equal loading was assessed using a β-tubulin mouse monoclonal primary antibody (Sigma).

MCF-7 cells [1] = assay: MTT cell viability assay in MCF-7 cells; type: cell-based
Procedure: (§4) Cell Viability Assays. Cell viability was assessed by MTT (3-(4,5-dimethylthiazol-2-yl)-2,5-diphenyltetrazolium bromide, Sigma) assay (12). […] MTT (0.5 mg/ml) was then added to each well and the cells incubated at 37° C. for a further 3 hours. The culture medium was removed and formazan crystals reabsorbed in 200 μL DMSO. Cell viability was determined by reading the absorbance of each well at 570 nm using a 96-well microplate reader (Molecular Devices, Wokingham, England). […] Twenty microlitres (20 μL) MTT (5 mg/ml) was then added to each well and the cells incubated at 37° C. for a further 3 hours. The culture medium was removed and formazan crystals reabsorbed in 200 μL DMSO. Cell viability was determined by reading the absorbance of each well at 570 nm using an ELISA plate reader (Molecular Devices).
(§5) Statistical Analyses. The nature of the interaction between the chemotherapeutic drugs and CH-11 was determined by calculating the R index (RI), which was initially described by Kern and later modified by Romaneli (13, 14). […] Synergism is then defined as an RI of greater than unity. […] To further assess the statistical significance of the interactions, the inventors designed a univariate ANOVA analysis using the SPSS software package. This was an additive model based on the null hypothesis that there was no interaction between the drugs.

HCT116p53^+/+ cells = assay: MTT cell viability assay in HCT116 p53 wild-type cells; type: cell-based, human; details: for interaction with CH-11 in MTT assay: range of drug concentrations 24 hours, then CH-11 200 ng/ml for 48 hours
Procedure: as §4, §5

MCF-7 cells [2] = assay: Flow cytometry of propidium iodide stained cells, sub-G1/G0 apoptotic fraction, MCF-7; type: cell-based; details: 25 nM RTX 72 hours, 250 ng/ml CH-11 24 hours; untreated control ~11%
Procedure: (§2) Where flow cytometric analysis was employed in Examples 1 to 5, the following protocol was used. Cells were seeded at 1×10^5 per well of a 6-well tissue culture plate. […] DNA content of harvested cells was evaluated after propidium iodide staining of cells using the EPICS XL Flow Cytometer (Coulter, Miami, Fla.). Where flow cytometric analysis was employed in Examples 6 to 12, the following protocol was used. Cells were seeded at 1×10^5 per well of a 6-well tissue culture plate. […] DNA content of harvested cells was evaluated after propidium iodide staining of cells using the EPICS XL Flow Cytometer (Coulter). A FITC-conjugated monoclonal anti-human Fas antibody (DAKO) was used to determine cell surface expression of the receptor. Cells were collected and washed twice in PBS before incubating in the antibody (1/20 dilution) at 4° C. for 30 mins. A non-reactive FITC-conjugated mouse IgG1 antibody was used as a negative control for each sample. Following incubation the cells were washed twice with PBS containing 2% bovine serum albumin and fixed in 0.3 mL 4% paraformaldehyde. Samples were then analysed on the EPICS XL Flow Cytometer (Coulter).

M7TS90-E6 cells = assay: Flow cytometry sub-G1/G0 apoptotic fraction, M7TS90-E6; type: cell-based; details: 96 hours after drug treatment; RTX 100 nM, MTA 1 μM, 5-FU 10 μM
Procedure: as §2

HCT116 p53 null cells = assay: Propidium iodide flow cytometry, HCT116 p53 null; type: cell-based, human; details: drug 24 hours followed by CH-11 50 ng/ml 24 hours
Procedure: as §2, with “Cells” for “Where flow cytometric analysis was employed in Examples 1 to 5, the following protocol was used. Cells”, “Where flow cytometric analysis was employed in Examples 6 to 12, the following protocol was used.” left out

Fas [3] = assay: Western blot of Fas expression in MCF-7 cells; type: cell-based
Procedure: as §1

Fas [4] = assay: Western blot of Fas expression in HCT116 p53 wild-type cells; type: cell-based, human; details: for Fas expression: RTX after 72 hours, MTA data not shown; for induction of Fas/CD95 protein: 5-FU 5 μM, CPT-11 5 μM, Oxaliplatin 1 μM for 48 hours
Procedure: as §1

Fas [5] = assay: Western blot of Fas expression in RKO cells; type: cell-based; details: 48 hours post-treatment; MTA data not shown
Procedure: as §1

Fas [6] = assay: Western blot of Fas expression in M7TS90 cells; type: cell-based; details: 10 μM 5-FU, 100 nM RTX or 1 μM MTA for 72 hours
Procedure: as §1

Fas [7] = assay: Western blot of Fas expression in M7TS90-E6 cells; type: cell-based; details: 10 μM 5-FU, 100 nM RTX or 1 μM MTA
Procedure: as §1

Fas [8] = assay: Western blot of Fas expression in H630 cells; type: cell-based; details: range of concentrations, 48 hours
Procedure: as §1

FasL = assay: Western blot of FasL expression in MCF-7 cells; type: cell-based; details: IC60 doses, 72 hours
Procedure: as §1

procaspase 8, PARP [9] = assay: Western blot of procaspase 8 and PARP in M7TS90-E6 cells; type: cell-based; details: p53 null; 5-FU 10 μM, RTX 100 nM, MTA 1 μM, CH-11 250 ng/ml; drugs alone data not shown
Procedure: as §1

Fas/CD95 mRNA [10] = assay: Real-time PCR of Fas/CD95 mRNA in HCT116 p53 wild-type cells; type: cell-based, human; details: IC60 72hrs doses
Procedure: (§3) Real-time PCR was performed using a DNA Engine Opticon 2 (MJ Research Incorporated). TheDyNAmo SYBR Green qPCR kit (Finnzymes) was used as the fluoresent dye specific for double-stranded DNA. PCR conditions consisted of an initial denaturation step of 95° C. for 10 minutes, followed by 39 cycles of 94° C. for 10 secs, 55° C. for 20 secs and 72° C. for 20 secs, with a final extension of 72° C. for 10 minutes. A melting curve was included at the end of each run to check the specificity of the amplified product. Experiments were performed in triplicate to ensure reproducibility of the technique. On completion of the run the PCR products were run put on a 2% ethidium bromide agarose gel to confirm that their size matched that of the expected amplicon. Primer sequences were as follows: Fas (Forward) […], Fas (Reverse) […], 18S (Forward) […], 18S (Reverse) […].

Fas/CD95 receptor [11] = assay: Flow cytometry of Fas/CD95 cell surface expression, HCT116 p53 null; type: cell-based, human; details: 24 hours
Procedure: as §2, with “Cells” for “Where flow cytometric analysis was employed in Examples 1 to 5, the following protocol was used. Cells”, “Where flow cytometric analysis was employed in Examples 6 to 12, the following protocol was used.” left out

RKO cells = assay: MTT cell viability assay in RKO cells; type: cell-based; details: data not shown
H630 cells = assay: MTT cell viability assay in p53 mutant H630 cells; type: cell-based; details: drug 24 hours, then CH-11 for 48 hours (Example 11)
Procedure: as §4, §5

Fas [12] = assay: Western blot of Fas expression in HCT116 p53 null cells; type: cell-based, human; details: CPT-11 5 μM, 48 hours
Procedure: as §1

procaspase 8, PARP [13] = assay: Western blot of procaspase 8 and PARP in HCT116 p53 null cells; type: cell-based, human; details: IC60 dose 24 hours followed by CH-11 200 ng/ml 24 hours
Procedure: as §1

Fas/CD95 mRNA [14] = assay: Real-time PCR of Fas/CD95 mRNA in HCT116 p53 null cells; type: cell-based, human; details: IC60 72hrs doses, 24 and 48 hours
Procedure: as §3

Fas receptor = assay: Fas/CD95 cell surface expression in p53 mutant H630 cell line (Example 11); type: cell-based; details: 48 hours; 5-FU 5 μM, CPT-11 5 μM, Oxaliplatin 1 μM
Procedure: as §2

HCT116p53^−/− cells = assay: MTT cell viability assay in HCT116 p53 null cells; type: cell-based, human; details: range of drug concentrations 24 hours, then CH-11 200 ng/ml for 48 hours
Procedure: as §4, §5

Fas/CD95 receptor [15] = assay: Flow cytometry of Fas/CD95 cell surface expression, HCT116 p53 wild-type; type: cell-based, human; details: 24 hours
Procedure: as §2

SMILES | interaction with CH-11 in MTT assay (HCT116p53^+/+ cells) | induction of apoptosis by drug alone (M7TS90-E6 cells) [fold] | interaction with CH-11 by propidium iodide staining (HCT116 p53 null cells) | Fas expression (Fas [4]) | Fas expression (Fas [5]) | effect of TS induction on drug-mediated up-regulation of Fas (Fas [6]) | Fas up-regulation (Fas [7]) | PARP cleavage / processing (procaspase 8, PARP [9]) | induction of Fas/CD95 receptor cell surface expression (Fas/CD95 receptor [11]) | induction of Fas/CD95 protein (Fas [4]) | maximum induction of Fas mRNA (Fas/CD95 mRNA [14]) | induction of the Fas receptor (Fas receptor) | other results
CC[C@H](C)[C@H](NC(=O)OCc1ccccc1)C(=O)N[C@@H](CCC(=O)OC)C(=O)N[C@H](C(=O)N[C@@H](CC(=O)OC)C(=O)CF)[C@@H](C)O [IETD-fmk] (Cbz-IE(OMe)TD(OMe)-CH2F) | – | – | – | – | – | – | – | – | – | – | – | – | effect on PARP cleavage in 5-FU/CH-11 co-treated cells (procaspase 8, BID, PARP; 10 μM IETD-fmk, 24 hours): inhibited PARP cleavage; effect on processing of procaspase 8 in cells co-treated with 5-FU and CH-11 (procaspase 8, BID, PARP; 10 μM IETD-fmk, 24 hours): blocked processing of procaspase 8
Cc1nc2ccc(CN(C)c3ccc(C(=O)N[C@@H](CCC(=O)O)C(=O)O)s3)cc2c(=O)[nH]1 [RTX, ralitrexed] | significant synergy | ~8 | to a lesser extent | dramatically increased | dramatic Fas up-regulation | abrogated | did not result in Fas up-regulation | processed | induction of the Fas/CD95 receptor | – | – | – | IC60 dose (MCF-7 cells [1]; MCF-7): 25 nM; cells in the sub-G1/G0 apoptotic phase (MCF-7 cells [2]): ~16%; Fas protein up-regulation (Fas [3]; 72 hours, IC60 dose (5 μM 5-FU, 25 nM RTX)): ~7 fold; Fas expression (Fas [8]): not significantly altered; FasL expression (FasL): unaffected; activation of caspase 8 and BID (processing of procaspase 8 and full-length BID), words (procaspase 8, BID, PARP; 5 μM 5-FU or 25 nM RTX 72 hours, CH-11 250 ng/ml 24 hours): neither caspase 8, nor its substrate BID were activated; induction of Fas mRNA expression (Fas/CD95 mRNA [10]; 24 and 48 hours): significant induction
Nc1nc2[nH]cc(CCc3ccc(C(=O)N[C@@H](CCC(=O)O)C(=O)O)cc3)c2c(=O)[nH]1 [MTA, pemetrexed] | – | ~6 | – | up-regulated | up-regulated | abrogated | did not result in Fas up-regulation | processed | – | – | – | – | interaction with CH-11 to decrease cell viability (MCF-7 cells [1]; data not shown): synergistically interacted; interaction with CH-11 to decrease cell viability (HCT116p53^+/+ cells; data not shown): synergistically interacted; interaction with CH-11 to decrease cell viability (RKO cells): synergistically interacted; Fas expression (Fas [3]; MTA data not shown, CH-11 alone 250 ng/ml, 5-FU alone 5 μM): up-regulated
CCc1c2c(nc3ccc(OC(=O)N4CCC(N5CCCCC5)CC4)cc13)-c1cc3c(c(=O)n1C2)COC(=O)[C@]3(O)CC [CPT-11, Irinotecan] | significant synergy | – | significant synergy | – | – | – | – | – | induction of the Fas/CD95 receptor | significant induction | 1.9 fold | Induction of the Fas receptor | interaction with CH-11 in MTT assay (H630 cells): significant synergy; induction of Fas/CD95 protein (Fas [12]): induction of Fas/CD95 protein; PARP cleavage and procaspase 8 activation following the addition of CH-11 (procaspase 8, PARP [13]): PARP cleavage and procaspase 8 activation; fold induction of Fas mRNA (Fas/CD95 mRNA [10]; 24 hours): 7.0 fold; fold induction of Fas mRNA (Fas/CD95 mRNA [10]; 48 hours): 2.5 fold
O=C1[O][Pt]2([NH][C@@H]3CCCC[C@H]3[NH]2)[O]C1=O [Oxaliplatin] | significant synergy | – | – | – | – | – | – | – | – | significant induction | no induction | Neither 5-FU nor Oxaliplatin treatment for 48 hours caused significant upregulation | interaction with CH-11 in MTT assay (HCT116p53^−/− cells): no synergistic interaction; induction of Fas/CD95 receptor cell surface expression (Fas/CD95 receptor [15]): significantly induce expression

Source: patent US20070286867A1, “Combination Therapy” (Fusion Antibodies Limited, priority 2003, published 2007)
